Results on two molecules are retold here after patent publication US20210238136A1, “AZETIDINE DERIVATIVE, AND PRODRUG THEREOF” (DAIICHI SANKYO COMPANY, LIMITED, priority 2018, published 2021).

Data set [1] can be described thus: Pharmacokinetic test of prodrug compounds in mouse. Format: in vivo, females, non-fasting). To be noted: female, C57BL/6J; mouse plasma, IV 1 mg/kg of the active compound; read-out: AUClast after IV administration. As to the method:
For prodrug compounds, the compounds of Examples 44, 103, and 104 (active compound of these is the compound of Example 41) and the compounds of Examples 89, 94, and 97 (active compound of these is the compound of Example 42), the plasma concentrations of the active compounds after oral administration to mice were measured, and various PK parameters were calculated. The method was as follows:
To C57BL/6J mice (females, non-fasting), the Example compounds were administered and blood sampling was performed under the following conditions.
Intravenous (IV): 1 mg/kg (n=2, 10% HP-β-CD dissolved in Saline/DMSO=95/5, v/v) Oral (PO): 10 mg/kg (n=2, 0.5% HPC dissolved in water)
After blood sampling, plasma was obtained by centrifugation, and to 10 μL of the obtained plasma, an equal amount of DMSO was added. […] The obtained samples were measured and quantitatively analyzed using MassLynx (version 4.1, Waters Corporation) under the following conditions.
From the plasma concentration measurements of the obtained active compound, the following PK parameters were calculated using Moment (Microsoft Excel).
AUClast: Area under plasma concentration-time curve to the last quantifiable time point Cmax: Maximum plasma concentration

For data set [2], the system named is IFN-α production in mouse splenocytes (pDC activation by CpG-ODN D35). Nature of the data set: IFN-α production in mouse splenocytes stimulated with TLR9 ligand CpG-ODN D35. It is filed as cell-based, mouse (C57BL/6J). The note with it: for IC50: Splenocyte, mouse splenocytes, CpG-ODN D35 1 μM, 24 hours of culture, ELISA; for effect on IFN-α production: test substances added at 1 nM to 300 nM. As to the method:
The test substances were added at concentrations of 1 nM to 300 nM.
Effect of Test Substance on IFN-α Production in Mouse Splenocytes
Production of IFN-α by TLR9 ligand CpG-ODN D35 stimulation activating pDC was evaluated. Splenocytes were prepared from euthanized C57BL/6J mice in the same way as Test Example 1. Splenocytes were seeded into 96-well round-bottom plates, and test substance was added, and then the plates were preincubated for 30 minutes. Then, CpG-ODN D35 (final concentration 1 μM) was added, and the cells were cultured at 37° C. under 5% CO2. After 24 hours of culture, the culture supernatant was collected, and the IFN-α concentration in the supernatant was measured with an ELISA kit (Mouse IFN-alpha Platinum ELISA Kit, eBioscience). The relative value of the IFN-α concentration of each well when the IFN-α production of the test substance-free group was set as 100% and the amount of the non-stimulated group as 0% (IFN-α production rate, % of vehicle) was calculated. The relative value of the IFN-α concentration was incorporated into analysis software Prism (Version 5.0, GraphPad Software), the “Nonlinear Regression Log (inhibitor) vs Reaction Variable Inclination” was selected for each compound, and then sigmoid fitting with restrictions of Bottom=0 and Top=100 was performed to create a graph of the concentration reaction curve and calculate 50% inhibitory concentration (IC50).

The subject of data set [3] is activated T cells (CD4+ T cells from mouse spleen). Nature of the data set: 3H-thymidine uptake in activated T cells. Format: cell-based, mouse (C57BL/6J). The note with it: T-cell; mouse spleen CD4+ T cells activated with Dynabeads Mouse T-Activator CD3/CD28; read-out: IC50 (3H-thymidine uptake, proliferation of activated T cells). As to the method:
Effect of Test Substance on ^3H-Thymidine Uptake in Activated T Cells
The effect of test substance on ^3H-thymidine uptake by activation was evaluated using T cells from mouse spleen. The spleen was removed from euthanized C57BL/6J mice, and finely sliced, then triturated on a cell strainer (40 μm mesh), and cells were collected by centrifugation. The collected splenocytes were treated with Cold lyser containing 0.17 M NH4Cl for 5 minutes to hemolytically remove red blood cells and then washed. The resulting cells were used as the splenocytes. From the splenocytes, CD4+ T cells were isolated using an EasySep Mouse CD4+ T cell isolation kit (STEMCELL Technologies Inc.). The CD4+ T cells were seeded into 96-well round-bottom plates. To the plates, test substance or Vehicle was added, and Dynabeads Mouse T-Activator CD3/CD28 (Thermo Fisher Scientific Inc.) was added, then the cells were cultured at 37° C. under 5% CO2. After 24 hours of culture, ^3H-Thymidine (PerkinElmer Inc.) diluted with medium was added to each well, then the cells were further cultured at 37° C. under 5% CO2 overnight. To measure ^3H-Thymidine uptake into the nuclei of the cells, the cells were collected into filter plates UniFilter-96 GF/B (PerkinElmer Inc.) using a FilterMate Universal Harvester (PerkinElmer Inc.). The filter plates were placed in a dryer and left still for 2 hours or more. Then, scintillation cocktail MicroScint-O (PerkinElmer Inc.) was added to the plates, and radioactivity was measured with TopCount NXT (PerkinElmer Inc.). With the radioactivity of the test substance-free group set as 100% and the radioactivity of the non-activation group as 0%, the relative value (proliferation rate, % of vehicle) of the radioactivity of each well to which test substance was added was calculated. The value of % of vehicle was incorporated into analysis software Prism (Version 5.0, GraphPad Software), the “Nonlinear Regression Log (inhibitor) vs Reaction Variable Inclination” was selected, and then sigmoid fitting with restrictions of Bottom=0 and Top=100 was performed to calculate 50% inhibitory concentration (IC50).

`N[C@@H](Cc1cccc(S(=O)(=O)N2CC(Oc3ccc(F)cc3)(c3ccccc3)C2)c1)C(=O)O` [Example 41, (S)-2-Amino-3-(3-((3-(4-fluorophenoxy)-3-phenylazetidin-1-yl)sulfonyl)phenyl)propanoic acid]: the AUC(0-t) in data set [1] is 728 ng·h/mL. In data set [2], the IC50 came to 21 nM and the “effect on IFN-α production” value is reported as “concentration-dependent suppression effects”. Moreover, the IC50 in data set [3] was 5.1 nM.
For `N[C@@H](Cc1cccc(S(=O)(=O)N2CC(Oc3cccc(F)c3)(c3ccccc3)C2)c1)C(=O)O` [Example 42, (S)-2-Amino-3-(3-((3-(3-fluorophenoxy)-3-phenylazetidin-1-yl)sulfonyl)phenyl)propanoic acid], in data set [1], the AUC(0-t) was found to be 499 ng·h/mL. Further, in data set [2], the IC50 is 13 nM and the “effect on IFN-α production” value was “concentration-dependent suppression effects”. Also, the IC50 in data set [3] stood at 4.1 nM.
